# Patent publication US20260345723A1, “Treatments for Opioid-Induced Respiratory Depression” (priority 2023, published 2026)
# Read-outs that look alike come from different tables or passages of the source.
# Columns and labels:
# [1] = test system: morphine physical dependence; experiment: Morphine physical dependence (naloxone-precipitated withdrawal signs); assay type: in vivo, rat (male Sprague Dawley)
# Method: (§1) Adult male Sprague Dawley (226-275 g) were purchased from Taconic Laboratories and maintained on a 12-hour/12-hour light/dark cycle with the lights off at 9:30 a.m. in a temperature- and humidity-controlled animal care facility. For the duration of the experiment, rats were housed two per cage and given unrestricted access to food and water at all times when in the home cage.
# Rats were implanted (SC, flank area) with 75 mg morphine pellets that remained intact for 7 days. Beginning on the day of pellet implantation, rats received daily injections of saline or RAP-103 (0.001, 0.1 or 1 mg/kg, IP, delivered in […]) throughout chronic morphine exposure. On the test day, rats were transported to the testing room and allowed to acclimate for 60 min before naloxone hydrochloride (10 mg/kg, IP, delivered in a 1 ml/kg volume) was injected to precipitate withdrawal signs. Immediately after naloxone administration, rats were placed into individual observation boxes and observed for 60 min. A modified version of the Gellet-Holtzman scale was used to grade withdrawal signs. Wet dog shakes, teeth chattering, eye blinks, and paw tremor were evaluated as the number of qualitatively observed occurrences over the 60-min test time.
# Respiratory depression data were analyzed by two-way ANOVA (RAP-103 pretreatment×morphine treatment) followed by a Bonferroni's multiple comparison test. Physical dependence data were analyzed by a Student's t-test. Self-administration (SA) time-course data for heroin and sucrose were analyzed by two-way ANOVA (RAP-103 treatment x day) followed by a Bonferroni's multiple comparison test. SA PR challenge data were analyzed by a Student's t-test. Protein and mRNA data were analyzed by two-way ANOVA (RAP-103 pretreatment x morphine treatment) followed by a Newman-Keuls post-hoc analysis. In all cases, P<0.05 was considered statistically significant.
# [2] = test system: sucrose self-administration; experiment: Sucrose self-administration (FR and PR); assay type: in vivo, rat (male Sprague Dawley); settings: RAP-103 1 mg/kg IP; P>0.05 vs saline
# Text: as §1
# Progressive ratio (PR) schedules of drug delivery are used to determine the ‘motivational’ state of an animal and drug reinforcing efficacy. A progressive ratio (PR) schedule requires the subject to perform an increasing number of lever presses for the next successive presentation of a reinforcer (e.g., heroin or sucrose). […] BP is a dependent measure used to quantify the degree to which the subject will work to get the next administration of the drug which serves as a reinforcer in the self-administration paradigm. […]
# Subjects were given access to self-administer sucrose pellets for 12-14 d for 2 h each day. […] All responses were recorded using the Med-Associates software. […]
# Respiratory depression data were analyzed by two-way ANOVA (RAP-103 pretreatment×morphine treatment) followed by a Bonferroni's multiple comparison test. Physical dependence data were analyzed by a Student's t-test. […] SA PR challenge data were analyzed by a Student's t-test. […]
# [3] = assay type: in vivo, Rhesus macaque (Macaca mulatta)
# Method: In non-human primates (rhesus monkeys) RAP-103 was dosed once on Day 1 by intravenous bolus injection at 1 mg/kg and plasma levels determined. […] Drug in plasma after a single IV dose (1 mg/Kg) was still measurable at anticipated therapeutic levels 96 hrs. post-dose in non-human primates as shown in FIG. 10B.
# [4] = assay type: in vivo, Rhesus macaque (Macaca mulatta); settings: seven days
# [5] = test system: opioid-induced respiratory depression; experiment: Example 4: treatment of a subject prescribed a high level of opioids; assay type: in vivo, human; settings: oral pill, concurrent with opioids
# Text: A subject is prescribed a high level of opioids to treat a pain. The subject is concurrently administered RAP-103 to treat opioid-induced respiratory depression. RAP-103 is orally administered to the subject as a pill to treat the opioid-induced respiratory depression. After administration, the subject has no change in their respiratory rate and blood oxygen levels (e.g., maintains full respiratory function).
# [6] = assay type: in vivo, rodents and non-human primates (Rhesus macaque)
# [7] = test system: morphine-induced respiratory depression
# CXCR4 [8] = test system: CXCR4
# CCR5 [9] = test system: CCR5
# CCR2 = settings: cited from earlier work
# CCR5 [10] = settings: cited from earlier work
# CCR8 [11] = settings: cited from earlier work
# CXCR4 [12] = settings: cited from earlier work
# neuropathic pain = settings: previous research; cited from earlier work
# [13] = test system: molecular hallmarks of neuropathic pain; settings: previous research; cited from earlier work
# CCR8 [14] = settings: mechanism involving CCR8; cited from earlier work
# [15] = RAP-103 0.001, 0.1 mg/kg IP, P>0.05, reduced trend
# [16] = RAP-103 1, 3 mg/kg IP in morphine-naïve rats vs saline, P>0.05
# [17] = RAP-103 1 or 3 mg/kg IP 30 min before morphine 5 mg/kg SC, 60 min
# [18] = RAP-103 only vs drug-naïve, P>0.05
substance,measurement,setting,value
D-Thr-D-Thr-D-Asn-D-Tyr-D-Thr [RAP-103],naloxone-precipitated eye blinking,[1]; [15],did not significantly impact
same,naloxone-precipitated wet dog shakes,[1]; [15],did not significantly impact
same,reduction of frequency of wet dog shakes,"[1]; RAP-103 1 mg/kg IP daily, morphine 75 mg pellet 7 d, naloxone 10 mg/kg IP, P<0.01",approximately 43%
same,reduction of frequency of eye blinking,"[1]; RAP-103 1 mg/kg IP daily, morphine 75 mg pellet 7 d, naloxone 10 mg/kg IP, P<0.05",approximately 59%
same,paw tremor,[1]; any dose of RAP-103,not affected
same,teeth chattering,[1]; any dose of RAP-103,not affected
same,sucrose PR breakpoints,[2],not significantly different
same,sucrose-taking (FR-1 SA),[2],not significantly different
same,"AUC 0-T, male vs female",[3]; intravenous bolus 1 mg/kg,comparable in male and female monkeys
same,"Cmax, male vs female",[3]; intravenous bolus 1 mg/kg,comparable in male and female monkeys
same,absolute bioavailability,"[3]; males, 1 mg/kg, rhesus monkeys",89%
same,oral bioavailability,"[3]; non-human primates (Rhesus macaque), 1 mg/kg",88%
same,oral bioavailability,"[3]; primates, 1 mg/kg",> 88%
same,time drug in plasma still measurable at anticipated therapeutic levels,"[3]; single IV dose 1 mg/kg, post-dose",≥ 96 h
same,acute toxicity,[4],no acute toxicity
same,body weights,[4],no RAP-103-related changes
same,clinical observations,[4],no RAP-103-related changes
same,blood oxygen levels,[5],no change
same,respiratory rate,[5],no change
same,"brain entry, oral compared to IV dosing",[6]; FIG. 10A,preferentially entered the brain by oral compared to IV dosing
same,brain entry,"[6]; oral and IV dosing, rodents and non-human primates",quickly entered the brain
same,respiratory rate,[7]; RAP-103 1 mg/kg IP before morphine 5 mg/kg SC,abolished
same,cumulative respiratory rate,"[7]; RAP-103 3 mg/kg IP before morphine 5 mg/kg SC, 60 min, P<0.01",normalized the morphine-induced increase in respiratory rate
same,"SpO2, RAP-103 by itself",[7]; [16],did not produce effects on SpO2
same,"respiratory rate, RAP-103 by itself",[7]; [16],did not produce effects on respiratory rate
same,oxygen saturation (FIGS. 1A-1B),[7]; [17],prevented the deficit in oxygen saturation
same,respiratory rate (FIGS. 2A-2B),[7]; [17],prevented the increase in respiratory rate
same,"CXCR4 protein levels, VTA",CXCR4 [8]; RAP-103 1 mg/kg IP + morphine,did not alter morphine enhancement of CCR2 or CXCR4
same,"CXCR4 protein levels, NAC",CXCR4 [8]; [18],did not display significantly different levels
same,"CXCR4 protein levels, VTA",CXCR4 [8]; [18],not significantly different
same,"CCR5 protein levels, NAC",CCR5 [9]; [18],did not display significantly different levels
same,"CCR5 protein levels, VTA",CCR5 [9]; [18],not significantly different
same,"CCR5 protein levels, NAC","CCR5 [9]; RAP-103 pretreatment 1 mg/kg IP + morphine, P<0.05",normalized morphine-induced deficits in CCR5 levels
same,"CCR5 protein levels, PFC","CCR5 [9]; rats receiving RAP-103 vs drug-naïve, P<0.05",lower CCR5 levels
same,"inhibition of chemokine ligand binding, CCR2",CCR2,at least partially inhibits
same,"inhibition of chemokine ligand binding, CCR5",CCR5 [10],at least partially inhibits
same,"inhibition of chemokine ligand binding, CCR8",CCR8 [11],at least partially inhibits
same,"inhibition of chemokine ligand binding, CXCR4",CXCR4 [12],at least partially inhibits
same,mechanical allodynia,neuropathic pain,attenuate
same,thermal hyperalgesia,neuropathic pain,attenuate
same,cell membrane ruffling,[13],downregulate
same,immune cell migration,[13],downregulate
same,phagocytosis,[13],downregulate
same,microglial chemotaxis,CCR8 [14],inhibit
same,microglial morphological change,CCR8 [14],inhibit
